# Data from patent US20220380801A1, “TRIPARTITE SYSTEMS FOR PROTEIN DIMERIZATION AND METHODS OF USE” (priority 2019, published 2022).
# Entries after “also recorded” stand apart in the source; their conditions may differ.
# How the values were obtained:
# [1] = tested on: HEK293 cells stably expressing the PRSIM-based kill switch; experiment: Kill switch cell viability (phase contrast); format: cell-based, human; conditions: 100 nM simeprevir
# Description: (§1) Lentiviral particles encoding the kill switch fusion protein (SEQ ID NO: 223) or kill switch S196A mutant fusion protein (SEQ ID NO: 230) were generated using pPACKH1 HIV lentiviral packaging kit (Systems Bioscience), according to manufacturer's instructions. HEK293 cells were transduced for 24 h in the presence of 8 μg/ml polybrene after which cells were changed into fresh growth medium (DMEM+10% foetal bovine serum+1% Non-essential amino acids). 24 h later transduced cells were selected by addition of 2 μg/ml puromycin for 5 days. Before functional testing, transduced cell pools were FACS sorted based on GFP fluorescence to isolate high expressing cell line pools and single cell clones.
# HEK293, HCT116 or HT29 cells stably expressing the PRSIM-based kill switch fusion protein (SEQ ID NO: 223) or HEK293 cells stably expressing the PRSIM kill switch S196A mutant fusion protein (SEQ ID NO: 230) were plated onto collagen-coated 96-well plates and 24 h later treated with 100 nM simeprevir. Phase contrast images were acquired at various timepoints using 10× or 20× objectives on an Incucyte Zoom (EssenBioscience).
# [2] = target: HCV NS3/4A PR K136N/PRSIM_23 (Hepatitis C virus subtype 1a, UniProt A8DG50, A1066T/I1043Q/I1044E/K1162N/L1039E/L1040E/L1047Q/S1165A, form not given); experiment: Biacore 8K simeprevir titration of heterodimerisation; format: binding; conditions: read-out: EC50 of simeprevir for induction of heterodimerisation; K136N protease, immobilised PRSIM_23
# Description: The effect of simeprevir concentration on the formation of the HCV NS3/4A PR (S139A)/PRSIM binding molecule complex was also measured using the Biacore 8K. PRSIM_57 and PRSIM_23 were covalently immobilised on a CM5 chip surface, as before. Simeprevir was diluted 1:2 (0.0152-300 nM) in 10 mM Hepes pH 7.4, 150 mM NaCl, 0.05% Surfactant P20, 0.3% DMSO at a constant 40 nM HCV NS3/4A PR (S139A) concentration. The samples were flowed over the chip at 50 μl/min using multi cycle kinetics, with 240 sec association and 600 sec dissociation. Regeneration conditions were as described above. Titration curves for the induction of HCV NS3/4A PR (S139A)/PRSIM dimerization by simeprevir were generated. The response for each simeprevir concentration at 225 sec (15 sec before the end of the association) was normalized as a percentage of the response for 300 nM Simeprevir at 225 sec and plotted against the Simeprevir concentration. Each data point represents the mean of 3 independent experiments±s.e.m. The EC50 reported was calculated using nonlinear regression curve fit. The same method was used for the mutant HCV NS3/4A proteases, except simeprevir was diluted 1:2 (0.0457-900 or 0.412-8,100 nM) in 10 mM Hepes pH 7.4, 150 mM NaCl, 0.05% Surfactant P20, 0.82% DMSO at a constant 40 nM HCV NS3/4A PR (S139A) concentration and the response for each simeprevir concentration was normalized against the highest simeprevir concentration.
# [3] = tested on: Caspase 3 activity in kill switch-transduced HCT116 cells; experiment: Kill switch Caspase 3 functional assay; format: cell-based, human; conditions: 10 nM simeprevir, relative to non-transduced cells
# Description: (§2) HCT116 and HT29 transduced cells were generated following the same protocol with exception of using McCoy's 5A medium+10% foetal bovine serum as growth medium, supplemented with 2 μg/ml puromycin for selection of transduced cells.
# (§3) Functional Caspase 9 activates Caspase 3, and this proteolytic activity can be determined using cleavage of non-fluorescent substrate DEVD-AMC into cleavage products DEVD and fluorescent AMC, such that AMC fluorescence signal at 430 nm is proportional to Caspase 3 activity. For the Caspase 3 assay, cells were plated in duplicate onto 6 well tissue-culture treated plates. 24 h later, one of the duplicate wells was treated with 10 nM simeprevir for 3 h. Cells lysates were analysed in triplicate using a Caspase 3 assay from BD Biosciences according to manufacturer's instruction with the modification that total protein input was normalised to 50 μg by BCA assay (LifeTechnologies). Fluorescence was determined on an Envision plate reader (PerkinElmer), Ex: 380 nm, Em: 430 nm. For quantification, RFU (raw fluorescence value) for wells that contained only the assay substrate were subtracted from all RFU derived from assay samples. Results were normalised to non-transduced, simeprevir-treated cells. Analysis was performed in Prism (GraphPad) using a One-Way-Anova followed by multiple comparisons.
# [4] = tested on: Caspase 3 activity in kill switch-transduced HT29 cells; experiment: Kill switch Caspase 3 functional assay; format: cell-based, human; conditions: 10 nM simeprevir, relative to non-transduced cells
# Description: as §2, §3
# [5] = tested on: Caspase 3 activity in kill switch-transduced HEK293 cells; experiment: Kill switch Caspase 3 functional assay; format: cell-based, human; conditions: relative to non-transduced cells
# Description: as §1
# Functional Caspase 9 activates Caspase 3, and this proteolytic activity can be determined using cleavage of non-fluorescent substrate DEVD-AMC into cleavage products DEVD and fluorescent AMC, such that AMC fluorescence signal at 430 nm is proportional to Caspase 3 activity. For the Caspase 3 assay, cells were plated in duplicate onto 6 well tissue-culture treated plates. […] Cells lysates were analysed in triplicate using a Caspase 3 assay from BD Biosciences according to manufacturer's instruction with the modification that total protein input was normalised to 50 μg by BCA assay (LifeTechnologies). Fluorescence was determined on an Envision plate reader (PerkinElmer), Ex: 380 nm, Em: 430 nm. […]
# [6] = target: HCV NS3/4A D168E PR (Hepatitis C virus subtype 1a, UniProt A8DG50, A1066T/D1194E/I1043Q/I1044E/L1039E/L1040E/L1047Q/S1165A, form not given); experiment: Octet RED384 simeprevir affinity; format: binding
# Description: (§4) The biotinylated HCV NS3/4A PR (S139A), HCV NS3/4A K136D PR, HCV NS3/4A K136N PR and HCV NS3/4A D168E PR were loaded on High Precision Streptavidin (SAX) biosensors at a concentration of 2 μg/ml in 10 mM Hepes pH 7.4, 150 mM NaCl, 0.05% Surfactant P20, 0.3% DMSO. The simeprevir was diluted […] (46.88-3,000 nM) in the same buffer and the loaded biosensors were dipped into the simeprevir samples for 180 sec to measure the association. For the dissociation the biosensors were dipped into the buffer for 600 sec. The traces were analysed using ForteBio Data Analysis software and fit globally using a 1:1 binding model.
# [7] = target: HCV NS3/4A K136N PR (Hepatitis C virus subtype 1a, UniProt A8DG50, A1066T/I1043Q/I1044E/K1162N/L1039E/L1040E/L1047Q/S1165A, form not given); experiment: Octet RED384 simeprevir affinity; format: binding
# Description: as §4
# [8] = target: HCV NS3/4A K136D PR (Hepatitis C virus subtype 1a, UniProt A8DG50, A1066T/I1043Q/I1044E/K1162D/L1039E/L1040E/L1047Q/S1165A, form not given); experiment: Octet RED384 simeprevir affinity; format: binding
# Description: as §4
structure (smiles),measurement,setting,value
COc1ccc2c(O[C@@H]3C[C@H]4C(=O)N[C@]5(C(=O)NS(=O)(=O)C6CC6)C[C@H]5/C=C\CCCCN(C)C(=O)[C@@H]4C3)cc(-c3nc(C(C)C)cs3)nc2c1C [simeprevir],cell killing,[1]; kill switch S196A,rapid cell killing in a timeframe comparable to the wt kill switch
same,cell death,[1]; wt kill switch,rapid cell death
same,EC50,[2],8.06 nM
same,Caspase 3 activity,[3],significantly (p<0.0001) up-regulated
same,Caspase 3 activity,[4],significantly (p<0.0001) up-regulated
same,Caspase 3 activity,"[5]; 10 nM simeprevir 3 h, wt kill switch",significantly (p<0.0001) up-regulated; also recorded: significantly (p<0.0005) upregulated
same,Caspase 3 activity,"[5]; 10 nM simeprevir, S196A mutant kill switch",significantly (p<0.0005) upregulated
same,Kd,[6],33 nM
same,decreased simeprevir affinity compared to ‘WT’ (S139A),[6],~2 fold
same,koff,[6],0.000665 s⁻¹
same,kon,[6],20000 M⁻¹ s⁻¹
same,Kd,[7],31.5 nM
same,decreased simeprevir affinity compared to ‘WT’ (S139A),[7],~2 fold
same,koff,[7],0.00107 s⁻¹
same,kon,[7],33800 M⁻¹ s⁻¹
same,Kd,[8],62.6 nM
same,decreased simeprevir affinity compared to ‘WT’ (S139A),[8],~3.5 fold
same,koff,[8],0.00234 s⁻¹
same,kon,[8],36200 M⁻¹ s⁻¹
